Assay results published in patent US20260217679A1, “CANCER TREATING COMPOUNDS” (UNIVERSITY OF BRADFORD, priority 2023, published 2026).
Read-outs that look alike come from different tables or passages of the source.

How the values were obtained:
MDA-MB-231 = experiment: Growth inhibition of MDA-MB-231 (triple-negative) breast cancer cell line; format: cell-based; conditions: Homo sapiens
Description: (§1) The compounds of the present invention were evaluated for their ability to inhibit the growth of MDA-MB-231 (triple-negative) and MCF-7 (oestrogen receptor positive) breast cancer cell lines. A positive control (PC), seco-CBI-MI, with structure shown below, was used as a baseline for comparison of the efficacy of the compounds of the present invention.

MCF-7 = experiment: Growth inhibition of MCF-7 (oestrogen receptor positive) breast cancer cell line; format: cell-based; conditions: Homo sapiens
Description: as §1

JR1 = experiment: Anti-proliferative activity in RMS cell lines, MTT assay; format: cell-based; conditions: read-out: IC50 JR1
Description: (§2) Briefly, […] of a cell suspension (~2000 cells/well) was added in fresh, sterile 96-well plates. Afterwards, rhabdomyosarcoma (RMS) cell lines (RH30, RH41 and JR1) were incubated for 24 h at 37° C., 5% CO2 to allow cellular attachment on the surface of the wells. On the next day after cell seeding, cells were treated with the duocarmycin compounds. 20 μL of drug dilution was added into the wells, making up a final volume of 200 μL/well. In untreated control wells, 20 μL of fresh medium was added instead (0.1% DMSO). Duocarmycin stock concentrations were prepared in DMSO; the concentration of the latter in the wells containing the medium and cells never exceeded 0.1% (v/v). The concentrations tested ranged from 100 μM to 1 pM depending on the IC50 of each compound from preliminary screening. Each experiment was tested at least in triplicate, and antiproliferative activity was determined after 96 hours using a standard MTT (3-(4,5-dimethylthiazol-2-yl)-2,5-diphenyltetrazolium bromide) assay.

RH30 = experiment: as above; format: cell-based; conditions: read-out: IC50 RH30
Description: as §2

RH41 = experiment: as above; format: cell-based; conditions: Homo sapiens, read-out: IC50 RH41
Description: as §2

[1] = tested on: H2AX phosphorylation in MDA-MB-231; experiment: H2AX phosphorylation Western Blot as marker of double-stranded DNA damage; format: cell-based, human; conditions: MDA-MB-231, Western Blot, FIG. 1
Text: The mechanism of action of the naturally occurring duocarmycins is well documented and involves spirocyclization of the seco-duocamycins including those derived from the CBI and other aryl-ring-fused subunits of the duocarmycin alkylating subunit.

[2] = MDA-MB-231 growth inhibition, read-out: IC50 MDA MB 231
[3] = MCF7, MCF-7 growth inhibition, read-out: IC50 MCF7
[4] = MDA-MB-231, read-out: IC50 MDA MB 231

Structure (SMILES)	IC50 (JR1; 96 h) [nM]	IC50 (RH30; Rh30, 96 h) [nM]	IC50 (RH41; Rh41, 96 h) [nM]	also measured
COC(=O)[C@H](CC(C)C)Nc1cc2c(c3ccccc13)C(CCl)CN2C(=O)c1cc2cc(OC)ccc2[nH]1 (stereo partly drawn) [DP65]	–	–	–	IC50 (MDA-MB-231; [2]): 28.3 ± 29 nM; IC50 (MCF-7; [3]): 8.1 ± 7 nM; IC50 (JR1; JR1, 96 hours, MTT): 0.323 ± 0.291 nM; IC50 (RH30; RH30, 96 hours, MTT): 0.0763 ± 0.129 nM; IC50 (RH41; RH41, 96 hours, MTT): 0.00551 ± 0.00229 nM; DNA damage measured using H2AX phosphorylation [1]: generated DNA damage
COc1ccc2[nH]c(C(=O)N3CC(CCl)c4c3cc(Nc3ccc(C(F)(F)F)cc3)c3ccccc43)cc2c1 (stereo not drawn) [DP70]	–	–	–	IC50 (MDA-MB-231; [2]): 129 ± 18.9 nM; IC50 (MCF-7; [3]): 76.7 ± 29 nM; IC50 (JR1; JR1, 96 hours, MTT): 44.6 ± 56.1 nM; IC50 (RH30; RH30, 96 hours, MTT): 18.9 ± 18.9 nM; IC50 (RH41; RH41, 96 hours, MTT): 31.2 ± 28.8 nM; DNA damage measured using H2AX phosphorylation [1]: generated DNA damage
COc1ccc2[nH]c(C(=O)N3CC(CCl)c4c3ccc3ccc(OCc5ccccc5)cc43)cc2c1 (stereo not drawn) [DP77]	22100 ± 19600	3080 ± 2570	22500 ± 17400	IC50 (MDA-MB-231; [4]): > 10000 nM; IC50 (MCF-7; MCF7, read-out: IC50 MCF7): > 10000 nM
COc1ccc2[nH]c(C(=O)N3CC(CCl)c4c3ccc3ccc(O)cc43)cc2c1 (stereo not drawn) [DP78]	3510 ± 1840	268 ± 130	500000 ± 416000	IC50 (MDA-MB-231; [4]): 1080 ± 200 nM; IC50 (MCF-7; MCF7, read-out: IC50 MCF7): 1020 ± 200 nM
COc1ccc(-c2cc3c(c4ccccc24)C(CCl)CN3C(=O)c2cc3cc(OC)ccc3[nH]2)cc1 (stereo not drawn) [ICT11038, (1-(Chloromethyl)-5-(4-methoxyphenyl)-1H-benzo[e]indol-3(2H)-yl)(5-methoxy-1H-indol-2-yl)methanone]	801000 ± 207000	35.8 ± 16.4	121000 ± 95300	–
COCc1ccc(-c2cc3c(c4ccccc24)C(CCl)CN3C(=O)c2cc3cc(OC)ccc3[nH]2)cc1 (stereo not drawn) [ICT11039, (1-(Chloromethyl)-5-(4-(methoxymethyl)phenyl)-1H-benzo[e]indol-3(2H)-yl)(5-methoxy-1H-indol-2-yl)methanone]	10100 ± 5780	12800 ± 8460	1140 ± 500	–
COc1ccc2[nH]c(C(=O)N3CC(CCl)c4c3cc(-c3ccncc3)c3ccccc43)cc2c1 (stereo not drawn) [ICT11040, (1-(Chloromethyl)-5-(pyridin-4-yl)-1H-benzo[e]indol-3(2H)-yl)(5-methoxy-1H-indol-2-yl)methanone]	861 ± 329	494 ± 267	576 ± 405	–
COc1ccc2[nH]c(C(=O)N3CC(CCl)c4c3cc(-c3cccnc3)c3ccccc43)cc2c1 (stereo not drawn) [ICT11041, (1-(Chloromethyl)-5-(pyridin-3-yl)-1H-benzo[e]indol-3(2H)-yl)(5-methoxy-1H-indol-2-yl)methanone]	12200 ± 4580	8040 ± 1030	6000 ± 5120	–
COc1ccc2[nH]c(C(=O)N3CC(CCl)c4c3cc(-c3ccccc3)c3ccccc43)cc2c1 (stereo not drawn) [ICT11043, (1-(Chloromethyl)-5-phenyl-1H-benzo[e]indol-3(2H)-yl)(5-methoxy-1H-indol-2-yl)methanone]	138000 ± 75800	56000 ± 17000	30200 ± 23100	–
COc1ccc2[nH]c(C(=O)N3CC(CCl)c4c3cc(-c3ccccc3O)c3ccccc43)cc2c1 (stereo not drawn) [ICT11044, (1-(Chloromethyl)-5-(2-hydroxyphenyl)-1H-benzo[e]indol-3(2H)-yl)(5-methoxy-1H-indol-2-yl)methanone]	422 ± 177	124 ± 134	291 ± 204	–
COc1ccc2[nH]c(C(=O)N3CC(CCl)c4c3cc(O)c3ccccc43)cc2c1 (stereo not drawn) [PC, seco-CBI-MI, reference compound]	–	–	–	IC50 (MDA-MB-231; [2]): 0.62 ± 0.5 nM; IC50 (MCF-7; [3]): 0.69 ± 0.3 nM
